Tests used:
[1] = tested on: HCT116 isogenic IDH1-R132C mutant cells; test: Cellular 2-HG assay using HCT116 mutant IDH1 cells (R132C); type: cell-based; conditions: Homo sapiens, HCT-116; cellular 2-HG inhibition, 24 hours, RapidFire mass spectrometry; read-out: HCT IDH1 R132C Range IC50
Protocol: HCT116 isogenic IDH1-R132H and IDH1-R132C mutant cells were cultured in growth media (McCoy's 5 A, 10% fetal bovine serum, 1× antibiotic-antimycotic solution and 0.3 mg/mL G418) in 5% CO2 in an incubator at 37° C. To prepare the assay, cells were trypsinized and resuspended in assay media (McCoy's 5 A with no L-glutamine, 10% fetal bovine serum, 1× antibiotic-antimycotic solution and 0.3 mg/mL G418). An aliquot of 10,000 cells/100 μL was transferred to each well of a clear 96-well tissue culture plate. The cells were incubated in 5% CO2 at 37° C. in an incubator overnight to allow for proper cell attachment. An aliquot of 50 μL of compound containing assay media were then added to each well and the assay plate was kept in 5% CO2 at 37° C. in an incubator for 24 hours. The media was then removed from each well and 150 μL of a methanol/water mixture (80/20 v/v) was added to each well. The plates were kept at −80° C. freezer overnight to allow for complete cell lysis. An aliquot of 125 μL of extracted supernatant was analyzed by RapidFire high-throughout-mass spectrometry (Agilent) to determine the cellular 2-HG level. The IC50 of a given compound was calculated by fitting the dose response curve of cellular 2-HG inhibition at a given concentration with the four parameter logistic equation

[2] = target: IDH1-R132C recombinant protein (Homo sapiens (Human), UniProt O75874, R132C); test: IDH1-R132C enzymatic assay; type: biochemical; conditions: inhibition of NADPH consumption, diaphorase/resazurin readout; read-out: Enzyme IDH1 R132C Range IC50
Protocol: (§1) Assays were performed in a 384-well black plate. […] After the plate was centrifuged briefly, an aliquot of 10 μL of 2 mM α-ketoglutarate and 20 μM NADPH solution prepared in assay buffer was then added to each well and the reaction was maintained at 25° C. for 45 minutes. An aliquot of 10 μL of diaphorase solution (0.15 U/mL diaphorase and 30 μM Resazurin in assay buffer) was added to each well. […] The IC50 of a given compound was calculated by fitting the dose response curve of inhibition of NADPH consumption at a given concentration with the four parameter logistic equation.

[3] = target: IDH1-R132H recombinant protein (Homo sapiens (Human), UniProt O75874, R132H); test: IDH1-R132H enzymatic assay; type: biochemical; conditions: inhibition of NADPH consumption, diaphorase/resazurin readout; read-out: Enzyme IDH1 R132H Range IC50
Protocol: as §1

Chain of IDH1-R132H recombinant protein (O75874 whole entry R132H): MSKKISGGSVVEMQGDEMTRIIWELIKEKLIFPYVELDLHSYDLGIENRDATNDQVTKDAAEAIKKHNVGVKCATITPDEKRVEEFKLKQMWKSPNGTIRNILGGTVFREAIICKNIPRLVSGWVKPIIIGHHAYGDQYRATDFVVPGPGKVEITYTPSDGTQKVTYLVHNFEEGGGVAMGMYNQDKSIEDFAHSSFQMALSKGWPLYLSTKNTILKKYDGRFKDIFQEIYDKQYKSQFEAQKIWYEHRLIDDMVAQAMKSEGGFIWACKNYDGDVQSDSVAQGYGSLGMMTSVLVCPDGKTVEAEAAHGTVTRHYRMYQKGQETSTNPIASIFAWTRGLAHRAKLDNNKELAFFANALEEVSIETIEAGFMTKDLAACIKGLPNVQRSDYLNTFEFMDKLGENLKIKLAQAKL
Chain of IDH1-R132C recombinant protein (O75874 whole entry R132C): as the sequence (O75874 whole entry R132H) above, with H132C counted along it

| Structure (SMILES) | IC50 [2] [nM] | IC50 [3] [nM] | IC50 [1] [nM] |
| --- | --- | --- | --- |
| COc1cc(N[C@@H](C)c2cc3cc(Cl)ccc3[nH]c2=O)ncc1C#N [Compound I-1, 6-{[(1S)-1-(6-chloro-2-oxo-1,2-dihydroquinolin-3-yl)ethyl]amino}-4-methoxypyridine-3-carbonitrile] | – | – | 100 to 1000 |
| COc1cc(N[C@@H](C)c2cc3cc(Cl)ccc3n(C)c2=O)ncc1C#N [Compound I-2, 6-{[(1S)-1-(6-chloro-1-methyl-2-oxo-1,2-dihydroquinolin-3-yl)ethyl]amino}-4-methoxypyridine-3-carbonitrile] | 1000 to 10000 | 1000 to 10000 | – |
| C[C@H](Nc1cccc(N2CCOC2=O)n1)c1cc2cc(Cl)ccc2[nH]c1=O [Compound I-11, 6-chloro-3-[(1S)-1-{[6-(2-oxo-1,3-oxazolidin-3-yl)pyridin-2-yl]amino}ethyl]-1,2-dihydroquinolin-2-one] | – | – | 100 to 1000 |
| CC(Nc1cc(N2C(=O)OC[C@@H]2C(C)C)ccn1)c1cc2cc(Cl)ccc2[nH]c1=O (stereo partly drawn) [Compound I-18, 6-chloro-3-[1-({4-[(4S)-2-oxo-4-(propan-2-yl)-1,3-oxazolidin-3-yl]pyridin-2-yl}amino)ethyl]-1,2-dihydroquinolin-2-one] | 1000 to 10000 | 100 to 1000 | – |
| CC(C)[C@H]1COC(=O)N1c1cccc(N[C@@H](C)c2cc3cc(Cl)ccc3[nH]c2=O)n1 [Compound I-19, 6-chloro-3-[(1S)-1-({6-[(4S)-2-oxo-4-(propan-2-yl)-1,3-oxazolidin-3-yl]pyridin-2-yl}amino)ethyl]-1,2-dihydroquinolin-2-one] | 1000 to 10000 | 100 to 1000 | – |
| COc1cc2[nH]c(=O)c([C@H](C)Nc3ccc(C#N)c(C)n3)cc2cc1Cl [Compound I-23, 6-{[(1S)-1-(6-chloro-7-methoxy-2-oxo-1,2-dihydroquinolin-3-yl)ethyl]amino}-2-methylpyridine-3-carbonitrile] | – | – | 10 to 100 |
| CC(=O)Nc1ccnc(N[C@@H](C)c2cc3cc(Cl)ccc3[nH]c2=O)c1F [Compound I-34, N-(2-{[(1S)-1-(6-chloro-2-oxo-1,2-dihydroquinolin-3-yl)ethyl]amino}-3-fluoropyridin-4-yl)acetamide] | 100 to 1000 | < 100 | – |
| C[C@H](Nc1nccc(NCCO)c1F)c1cc2cc(Cl)ccc2[nH]c1=O [Compound I-36, 6-chloro-3-[(1S)-1-({3-fluoro-4-[(2-hydroxyethyl)amino]pyridin-2-yl}amino)ethyl]-1,2-dihydroquinolin-2-one] | > 10000 | 1000 to 10000 | – |
| C[C@H](Nc1cc(-c2ccnn2C2CCCCO2)ccn1)c1cc2cc(Cl)ccc2[nH]c1=O (stereo partly drawn) [Compound I-47, 6-chloro-3-[(1S)-1-({4-[1-(oxan-2-yl)-1H-pyrazol-5-yl]pyridin-2-yl}amino)ethyl]-1,2-dihydroquinolin-2-one] | 1000 to 10000 | 1000 to 10000 | – |
| Cc1cc(-c2ccnc(N[C@@H](C)c3cc4cc(Cl)ccc4[nH]c3=O)c2F)n(C)n1 [Compound I-52, 6-chloro-3-[(1S)-1-{[4-(1,3-dimethyl-1H-pyrazol-5-yl)-3-fluoropyridin-2-yl]amino}ethyl]-1,2-dihydroquinolin-2-one] | > 10000 | 1000 to 10000 | – |
| C[C@H](Nc1nccc(-c2ccnn2C)c1F)c1cc2cc(Cl)ccc2[nH]c1=O [Compound I-53, 6-chloro-3-[(1S)-1-{[3-fluoro-4-(1-methyl-1H-pyrazol-5-yl)pyridin-2-yl]amino}ethyl]-1,2-dihydroquinolin-2-one] | > 10000 | 1000 to 10000 | – |
| CC(C)Cn1nccc1-c1ccnc(N[C@@H](C)c2cc3cc(Cl)ccc3[nH]c2=O)c1F [Compound I-56, 6-chloro-3-[(1S)-1-({3-fluoro-4-[1-(2-methylpropyl)-1H-pyrazol-5-yl]pyridin-2-yl}amino)ethyl]-1,2-dihydroquinolin-2-one] | > 10000 | > 10000 | – |
| Cc1cc(NCc2cc3cc(Cl)ccc3[nH]c2=O)ncc1C#N [Compound I-59, 6-{[(6-chloro-2-oxo-1,2-dihydroquinolin-3-yl)methyl]amino}-4-methylpyridine-3-carbonitrile] | 1000 to 10000 | 100 to 1000 | – |
| N#Cc1ccc(NCc2cc3cc(Cl)ccc3[nH]c2=O)nc1 [Compound I-67, 6-{[(6-chloro-2-oxo-1,2-dihydroquinolin-3-yl)methyl]amino}pyridine-3-carbonitrile] | > 10000 | 100 to 1000 | – |
| Cc1cc2cc(CNc3ccc(C#N)cn3)c(=O)[nH]c2cc1C [Compound I-80, 6-{[(6,7-dimethyl-2-oxo-1,2-dihydroquinolin-3-yl)methyl]amino}pyridine-3-carbonitrile] | – | 100 to 1000 | – |
| COc1ccc2[nH]c(=O)c(CNc3ccc(C#N)cn3)cc2c1 [Compound I-81, 6-{[(6-methoxy-2-oxo-1,2-dihydroquinolin-3-yl)methyl]amino}pyridine-3-carbonitrile] | – | 1000 to 10000 | – |
| COc1ccc2[nH]c(=O)c(CNc3cc(C)ccn3)cc2c1 [Compound I-82, 6-methoxy-3-{[(4-methylpyridin-2-yl)amino]methyl}-1,2-dihydroquinolin-2-one] | – | > 10000 | – |
| Cc1nc(NCc2cc3cc(Cl)c(OCc4ccccn4)cc3[nH]c2=O)ccc1C#N [Compound I-84, 6-({[6-chloro-2-oxo-7-(pyridin-2-ylmethoxy)-1,2-dihydroquinolin-3-yl]methyl}amino)-2-methylpyridine-3-carbonitrile] | – | 100 to 1000 | – |
| Cc1nc(NCc2cc3cc(Cl)c(OCCN4CCN(S(C)(=O)=O)CC4)cc3[nH]c2=O)ccc1C#N [Compound I-85, 6-[({6-chloro-7-[2-(4-methanesulfonylpiperazin-1-yl)ethoxy]-2-oxo-1,2-dihydroquinolin-3-yl}methyl)amino]-2-methylpyridine-3-carbonitrile] | 100 to 1000 | < 100 | – |

Second part, led by results:

| IC50 [2] [nM] | IC50 [3] [nM] | Structure (SMILES) | IC50 [1] [nM] |
| --- | --- | --- | --- |
| 1000 to 10000 | < 100 | C[C@H](Nc1cc(N2CCOC2=O)ccn1)c1cc2cc(Cl)ccc2[nH]c1=O [Compound I-10, 6-chloro-3-[(1S)-1-{[4-(2-oxo-1,3-oxazolidin-3-yl)pyridin-2-yl]amino}ethyl]-1,2-dihydroquinolin-2-one] | – |
| 1000 to 10000 | 100 to 1000 | C[C@H](Nc1cc(N2C(=O)OCC2(C)C)ccn1)c1cc2cc(Cl)ccc2[nH]c1=O [Compound I-13, 6-chloro-3-[(1S)-1-{[4-(4,4-dimethyl-2-oxo-1,3-oxazolidin-3-yl)pyridin-2-yl]amino}ethyl]-1,2-dihydroquinolin-2-one] | – |
| 100 to 1000 | 1000 to 10000 | Cc1cc(-c2ccnc(N[C@@H](C)c3cc4cc(Cl)ccc4[nH]c3=O)c2)n(C)n1 [Compound I-39, 6-chloro-3-[(1S)-1-{[4-(1,3-dimethyl-1H-pyrazol-5-yl)pyridin-2-yl]amino}ethyl]-1,2-dihydroquinolin-2-one] | – |
| 1000 to 10000 | 1000 to 10000 | C[C@H](Nc1cc(-c2ccn[nH]2)ccn1)c1cc2cc(Cl)ccc2[nH]c1=O [Compound I-41, 6-chloro-3-[(1S)-1-{[4-(1H-pyrazol-5-yl)pyridin-2-yl]amino}ethyl]-1,2-dihydroquinolin-2-one] | – |
| 1000 to 10000 | 1000 to 10000 | CC(C)Cn1nccc1-c1ccnc(N[C@@H](C)c2cc3cc(Cl)ccc3[nH]c2=O)c1 [Compound I-43, 6-chloro-3-[(1S)-1-({4-[1-(2-methylpropyl)-1H-pyrazol-5-yl]pyridin-2-yl}amino)ethyl]-1,2-dihydroquinolin-2-one] | – |
| 1000 to 10000 | 1000 to 10000 | CC(C)n1nccc1-c1ccnc(N[C@@H](C)c2cc3cc(Cl)ccc3[nH]c2=O)c1 [Compound I-44, 6-chloro-3-[(1S)-1-({4-[1-(propan-2-yl)-1H-pyrazol-5-yl]pyridin-2-yl}amino)ethyl]-1,2-dihydroquinolin-2-one] | – |
| 1000 to 10000 | 1000 to 10000 | Cc1cscc1-c1ccnc(N[C@@H](C)c2cc3cc(Cl)ccc3[nH]c2=O)c1 [Compound I-48, 6-chloro-3-[(1S)-1-{[4-(4-methylthiophen-3-yl)pyridin-2-yl]amino}ethyl]-1,2-dihydroquinolin-2-one] | – |
| 1000 to 10000 | 1000 to 10000 | C[C@H](Nc1cc(-c2ccnn2C)ccn1)c1cc2cc(Cl)ccc2[nH]c1=O [Compound I-49, 6-chloro-3-[(1S)-1-{[4-(1-methyl-1H-pyrazol-5-yl)pyridin-2-yl]amino}ethyl]-1,2-dihydroquinolin-2-one] | – |
| > 10000 | 1000 to 10000 | C[C@H](Nc1cc(-c2c[nH]nc2C(F)(F)F)ccn1)c1cc2cc(Cl)ccc2[nH]c1=O [Compound I-50, 6-chloro-3-[(1S)-1-({4-[3-(trifluoromethyl)-1H-pyrazol-4-yl]pyridin-2-yl}amino)ethyl]-1,2-dihydroquinolin-2-one] | – |

From US10253015B2, “Pyridinyl quinolinone derivatives as mutant-isocitrate dehydrogenase inhibitors” (FORMA TM2, Inc., priority 2014, dated 2019)
